Measurements reported in patent publication US20080064726A1, “Pyrrolidine Derivatives” (priority 2004, published 2008).
Read-outs that look alike come from different tables or passages of the source.

Columns and labels:
[1] = target: T1, DPP-IV purified from pig kidney (Sus scrofa, UniProt P22411); assay: Test for determination of DPP-IV inhibitory activity (Gly-Pro-AMC fluorescence); type: biochemical; conditions: room temperature, 60 minutes, 0.05 mM Gly-Pro-AMC
T1 construct: DPP-rIV purified from pig kidney (Sigma); purchased Sigma; host or cells: pig kidney tissue
T1 sequence (P22411 whole entry): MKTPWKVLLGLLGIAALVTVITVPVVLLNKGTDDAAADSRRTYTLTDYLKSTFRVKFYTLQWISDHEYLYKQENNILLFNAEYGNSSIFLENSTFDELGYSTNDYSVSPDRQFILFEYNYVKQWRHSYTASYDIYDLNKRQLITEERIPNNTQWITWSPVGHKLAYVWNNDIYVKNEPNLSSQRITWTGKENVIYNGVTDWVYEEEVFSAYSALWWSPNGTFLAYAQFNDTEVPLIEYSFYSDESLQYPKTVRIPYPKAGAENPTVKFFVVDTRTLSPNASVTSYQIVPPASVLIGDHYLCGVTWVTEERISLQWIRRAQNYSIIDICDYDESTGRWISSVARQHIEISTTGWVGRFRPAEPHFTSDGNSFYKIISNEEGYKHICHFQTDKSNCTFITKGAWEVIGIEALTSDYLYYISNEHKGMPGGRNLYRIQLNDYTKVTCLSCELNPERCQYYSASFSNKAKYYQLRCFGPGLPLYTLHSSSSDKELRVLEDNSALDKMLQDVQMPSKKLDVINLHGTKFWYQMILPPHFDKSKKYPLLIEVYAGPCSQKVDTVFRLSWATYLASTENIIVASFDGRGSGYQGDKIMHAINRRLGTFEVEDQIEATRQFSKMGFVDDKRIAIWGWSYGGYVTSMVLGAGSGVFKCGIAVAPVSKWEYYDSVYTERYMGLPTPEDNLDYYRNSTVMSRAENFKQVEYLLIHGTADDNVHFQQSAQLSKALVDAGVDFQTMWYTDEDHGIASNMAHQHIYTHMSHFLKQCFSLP
Method: Procedure of DPP-IV activity measurement is as follows. The reaction was performed in a 96-well plate.
Reaction solutions (100 μl/well) obtained by adding a test substance at various concentrations to a solution containing 50 mM of Tris HCl, 150 mM of sodium chloride, a 0.1% triton X-100, 0.3 mU/mI of DPP-rIV purified from pig kidney (Sigma), and 0.05 mM of Gly-Pro-AMC (Bachem) were incubated at a room temperature for 60 minutes, and then fluorescence intensities (Excitation: 355 nm, Emission: 460 nm) of the reaction solutions were measured (ARVO, Perkin Elmer). The data of 3 Wells under the same conditions were averaged.
The inhibition in the test group, relative to the solvent-added group was calculated, and the IC50 value thereof was obtained through logistic analysis.

[2] = PK test in rats; type: in vivo; conditions: for BA, compound measured = compound tested / AUC(0-inf): male SD rats; for BA, compound measured = compound tested: oral 3 mg/kg vs intravenous 1 mg/kg; for AUC(0-inf): rat, oral 3 mg/kg, plasma, read-out: AUC0→∞, compound measured = compound tested
Method: Each three animals were used for each point. Plasma was collected from the blood obtained by such a blood collection and concentration of the compound in plasma was measured using LC/MS/MS (2695, Waters and TSQ Quantum, ThermoFinnigan).
On the basis of concentration of the compound in the plasma determined by the measurement, an area under curve (AUC) of the drug concentration in plasma vs. time was calculated and, from the ratio of AUC by oral administration to AUC by intravenous injection, bioavailability (BA) was calculated. With regard to the BA value by administration of the compound of the present invention, each of concentrations in plasma of the compound X and the compound of the present invention was calculated.

[3] = PK test in cynomolgus monkey; type: in vivo; conditions: male cynomolgus monkeys; for BA, compound measured = compound tested: oral 3 mg/kg vs intravenous 1 mg/kg, monohydrochloride
Method: Male cynomolgus monkeys of four year old (K. K. Cary; the country of origin: Vietnam) were fasted for 16 hours before administration (feed was given after 4 hours from administration), a test compound dissolved in distilled water was orally administered at a dose of 3 mg/kg and blood was collected from forearm cephalic vein after 0.25, 0.5, 1, 2, 4, 8 and 24 hours from administration of the compound. In addition, cynomolgus monkeys to which no drug was administered for 7 days after the oral administration were fasted during 16 hours before administration (feed was given after 4 hours from administration), a test compound dissolved in distilled water was administered at the dose of 1 mg/kg from forearm cephalic vein and blood was collected from the forearm cephalic vein after 0.1, 0.25, 0.5, 1, 2, 4, 8 and 24 hours from administration of the compound. For each of the administrations, three animals were used. Plasma was collected by centrifugal separation of the blood obtained by such a blood collection and concentration of the compound in the plasma was measured by LC/MS/MS (2695, Waters and TSQ Quantum, ThermoFinnigan).

[4] = target: T2, plasma DPP-IV activity (Mus musculus, UniProt P28843); assay: Test for DPP-IV inhibiting activity duration in mice (plasma DPP-IV activity after oral administration); type: in vivo; conditions: male ICR mice, 10 mg/kg oral
T2 construct: from tissue; host or cells: plasma of male ICR mice after oral dosing
T2 sequence (P28843 38-760 limits assumed): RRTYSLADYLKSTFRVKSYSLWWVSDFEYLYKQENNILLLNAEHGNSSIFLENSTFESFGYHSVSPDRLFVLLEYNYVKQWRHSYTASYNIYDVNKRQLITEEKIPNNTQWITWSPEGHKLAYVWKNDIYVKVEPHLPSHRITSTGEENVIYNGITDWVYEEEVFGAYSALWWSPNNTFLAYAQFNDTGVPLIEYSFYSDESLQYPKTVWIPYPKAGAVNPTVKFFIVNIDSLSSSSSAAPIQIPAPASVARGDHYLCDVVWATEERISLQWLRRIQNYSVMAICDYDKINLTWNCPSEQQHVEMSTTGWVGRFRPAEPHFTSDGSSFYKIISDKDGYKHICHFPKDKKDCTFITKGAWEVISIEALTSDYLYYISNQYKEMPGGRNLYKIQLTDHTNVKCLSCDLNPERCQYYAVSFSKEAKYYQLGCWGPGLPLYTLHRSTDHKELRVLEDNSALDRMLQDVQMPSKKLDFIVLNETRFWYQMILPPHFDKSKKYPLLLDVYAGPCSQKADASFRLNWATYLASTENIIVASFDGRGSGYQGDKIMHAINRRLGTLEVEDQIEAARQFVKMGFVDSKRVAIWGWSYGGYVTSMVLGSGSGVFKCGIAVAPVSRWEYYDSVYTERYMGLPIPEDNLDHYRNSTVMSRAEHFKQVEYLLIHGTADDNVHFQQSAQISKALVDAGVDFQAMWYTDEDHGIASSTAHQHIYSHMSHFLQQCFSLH
Method: Male ICR mice (Nippon SLC) were grouped into a test group and a control group of 5 subjects each. A test compound (10 mg/kg) was dissolved in purified water, and orally administered. Purified water alone was orally administered to the mice of the control group. One half and 12 hours after the administration, the blood was collected from each mouse through the orbital venous plexus thereof. The collected blood was immediately centrifuged to isolate the plasma, and the DPP-IV activity of the plasma was measured.
The process of plasma DPP-IV activity determination was as follows: The reaction was performed in a 96-well plate. 5 μl of the collected plasma was added to an aqueous solution (95 μl/well) comprises 25 mM Tris-HCl, 140 mM sodium chloride, 10 mM potassium-chloride, 1% bovine serum albumin, and 0.01 mM Gly-Pro-AMC (Bachem), and incubated at room temperature for 20 minutes. The fluorescence intensity (excitation 355 nm/emission 460 nm) of each well was measured (ARVO, Perkin Elmer).
The fluorescent intensity of the well, to which was added the plasma collected from the control group, was 100%. Based on it, the DPP-IV activity of the plasma collected from the test compound administered mice was calculated, and the activity difference between the control group and the test group was obtained. This indicated the inhibition in the test group.

[5] = 0.5 hour, read-out: Inhibitory Rate after 0.5 Hour from Administration
[6] = 12 hours, read-out: Inhibitory Rate after 12 Hours from Administration

IC50 [1] [nM]	BA, compound measured = compound tested [2] [%]	AUC(0-inf) [2] [ng·h/mL]	AUC(0-inf) ([3]; cynomolgus monkey, oral 3 mg/kg, plasma, read-out: AUC0→∞, compound measured = compound tested) [ng·h/mL]	BA, compound measured = compound tested ([3]; listed as compound X) [%]	BA, compound measured = compound tested [3] [%]	inhibition at 10 mg/kg [4, 5] [%]	inhibition at 10 mg/kg [4, 6] [%]	Increase of AUC (sum of tested compound and compound X in plasma) compared with AUC when compound X was administered ([2]; rats, oral administration)	AUC0→∞, compound measured = compound tested ([3]; oral 3 mg/kg, plasma)	Compound
15	16	138	278 ± 104	13	13 ± 5	–	–	–	–	CC1(NCC(=O)N2C[C@@H](F)C[C@H]2C#N)CCN(C(=O)CO)CC1.Cl [Compound X, (2S,4S)-4-fluoro-1-{[(1-glycoloyl-4-methylpiperidin-4-yl)amino]acetyl}pyrrolidine-2-carbonitrile monohydrochloride]
–	–	–	–	–	–	90	33	–	–	COCC(=O)N1CCC(NCC(=O)N2CCC[C@H]2C#N)CC1 [Compound Y]
15	77	43	–	–	–	95	84	about fourfold	not detected	CC(=O)OCC(=O)N1CCC(C)(NCC(=O)N2C[C@@H](F)C[C@H]2C#N)CC1 [Example 1, 2-[4-({2-[(2S,4S)-2-cyano-4-fluoropyrrolidin-1-yl]-2-oxoethyl}amino)-4-methylpiperdin-1-yl]-2-oxoethyl acetate monofumarate]
